From paper PMC4840416, “Constructing and Validating High-Performance MIEC-SVM Models in Virtual Screening for Kinases: A Better Way for Actives Discovery” (Scientific Reports, 2016)

molecular target: T1, recombinant human ALK protein (Homo sapiens, UniProt Q9UM73); assay: LanthaScreen TR-FRET in vitro inhibitory activity assay of ALK; type: biochemical; conditions: TR-FRET, 5 μM ATP, 1 hour at room temperature
T1 construct: purchased Life Technologies Inc. PV3867
Description: All reagents and anhydrous solvents were obtained from commercial sources and used as received. The positive control inhibitors of ALK, crizotinib and ceritinib, were purchased from Bangshunda Technology and Selleck Chemicals, respectively. The compounds were dissolved in 100% dimethyl sulfoxide (DMSO) as a 10 mM stock solution. The final DMSO concentration in each reaction was less than 1%. Purified recombinant human ALK protein (Catalog number: PV3867) as well as reagents for TR-FRET assay, including Lantha Screen™ Tb-PY20 (Catalog number: PV3552), Fluorescein-Poly GT (Catalog number: PV3610), ATP (Catalog number: PV3227), Kinase Quench Buffer (Catalog number: P2832), Kinase Buffer (Catalog number: PV3189), and Antibody Dilution Buffer (Catalog number: PV3574), were all obtained from Life Technologies Inc.
Lantha Screen™ kinase assay based on TR-FRET technology was used to measure the inhibitory activity of the screened compounds. All the assays were carried out in 384-well plate format. The 4 × test compounds were firstly prepared before the enzyme reaction starts. The 4 × recombinant human ALK protein and 2 × Substrate/ATP mixture were separately prepared in 50 mM HEPES (pH = 7.5), 0.01% BRIJ-35, 10 mM MgCl2, 4 mM MnCl2, 1 mM EGTA, and 2 mM DTT. The final 10 μL kinase reaction consists of 5 μL 1 × Substrate/ATP mixture (0.2 μM substrate and 5 μM ATP), 2.5 μL ALK (5 ng/ml ALK protein), and 2.5 μL 1 × test compounds with desired concentration. The assay plate was shook on a plate shaker for 30 seconds to mix the reactions thoroughly. After 1 hour kinase reaction incubation at room temperature (20 ~ 25 °C), 10 μL of pre-prepared 20 mM EDTA and 4 nM Tb-labeled antibody solution was then added to terminate the kinase reactions and to initiate antibody binding, and the assay plate was incubated for another 1 hour at room temperature. Then, the assay plate was placed into a fluorescence plate reader (BioTek Synergy™ 4) to measure both fluoresce in and terbium emission signals (excitation: 340 nm; emission: 520 and 495 nm, respectively) with 100 μs delay time and 200 μs integration time. To determine the IC50 values, the resulted inhibitory activity calculated from TR-FRET emission ratio (i.e. fluoresce in emission intensity/terbium emission intensity) was plotted against the concentration of inhibitor, and the data was fitted to a dose-response curve with a variable slop.

T1 sequence (Q9UM73 1058-1620 limits assumed): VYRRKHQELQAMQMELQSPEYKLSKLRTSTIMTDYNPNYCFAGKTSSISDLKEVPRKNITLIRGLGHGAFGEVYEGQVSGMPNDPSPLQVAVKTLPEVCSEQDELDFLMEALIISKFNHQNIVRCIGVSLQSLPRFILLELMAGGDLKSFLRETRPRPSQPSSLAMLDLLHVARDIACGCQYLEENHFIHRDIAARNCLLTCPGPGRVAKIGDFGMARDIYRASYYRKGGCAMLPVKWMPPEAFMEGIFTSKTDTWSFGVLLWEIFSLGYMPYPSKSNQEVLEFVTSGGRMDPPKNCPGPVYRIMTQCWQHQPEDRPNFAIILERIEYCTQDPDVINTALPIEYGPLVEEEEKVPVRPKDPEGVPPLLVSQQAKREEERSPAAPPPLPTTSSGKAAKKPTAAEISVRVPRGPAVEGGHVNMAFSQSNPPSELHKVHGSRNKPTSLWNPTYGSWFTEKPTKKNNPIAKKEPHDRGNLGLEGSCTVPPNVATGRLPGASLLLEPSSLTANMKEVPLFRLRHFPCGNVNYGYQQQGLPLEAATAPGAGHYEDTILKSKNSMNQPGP

Structure (SMILES) | IC50 [nM]
O=C(c1cc(C(=O)N2CCN(c3ccccc3)CC2)cc(C(=O)N2CCN(c3ccccc3)CC2)c1)N1CCN(c2ccccc2)CC1 [Compound A1] | 572
O=C(CN1C(=O)C(=NNC(=O)c2ccc(NC(=O)c3ccccc3)cc2)c2ccccc21)Nc1ccccc1 [Compound A2] | 832
Cc1ccc(C)c(N2CCN(C3CC(=O)N(c4ccc(N5C(=O)CC(N6CCN(c7cc(C)ccc7C)CC6)C5=O)cc4)C3=O)CC2)c1 (stereo not drawn) [Compound A3] | 1540
Cc1ccc(N2C(=O)C(=Cc3ccc(C)s3)C(=O)N(c3ccc(C)cc3C)C2=S)c(C)c1 [Compound M3] | 515
COc1cc(/C=C2/C(=N)N3N=C(c4ccccc4Cl)SC3=NC2=O)ccc1O [Compound M4] | 863

same assay, conditions: compound at 2ug/ml

Structure (SMILES) | Averaged Enzymatic Inhibition @ 2ug/ml (%)
O=C(Nc1ccccc1)c1c(-c2ccccc2)c(C(=O)c2ccc([N+](=O)[O-])cc2)n2ccccc12 [AI-204/31728031] | 3.565
Cc1nc(Nc2nc(CSc3nnnn3-c3ccccc3)cc(=O)[nH]2)nc2ccccc12 [AJ-292/42284747] | 1.31
Cc1ccc(C(=O)CC2(O)C(=O)N(CCc3ccccc3)c3ccccc32)cc1 (stereo not drawn) [AK-778/40897568] | 18.54
O=C(CC1(O)C(=O)N(CCc2ccccc2)c2ccccc21)c1ccc2c(c1)OCCO2 (stereo not drawn) [AK-778/41314821] | -1.935
C(=C(\Cn1nc(-c2ccccc2)c(-c2ccccc2)c1-c1ccccc1)c1ccccc1)/c1ccccc1 [AK-830/13217169] | 2.08
Cc1ccc(C(=O)COC(=O)c2ccc3nc4c5ccccc5c5ccccc5c4nc3c2)cc1C [AK-918/13399094] | 8.005
O=C(COC(=O)c1c(-c2ccccc2)c(-c2ccccc2)nc2ccccc12)c1ccccc1 [AK-918/15391011] | -13.24
C(=N\Nc1nnc(-c2ccccc2)c(-c2ccccc2)n1)/c1c2ccccc2cc2ccccc12 [AK-968/11200121] | -0.805
Cc1cccc(N=c2sc(C3=c4cc(C)ccc4=NC3=O)c(O)n2-c2cccc(C)c2)c1 [AK-968/11780042] | -8.175
Cc1ccc(-c2cc(C(=O)N3CCN(C/C=C/c4ccccc4)CC3)c3ccccc3n2)cc1C [AK-968/11842315] | 10.91
COc1ccccc1C(=O)Nc1ccc2oc(-c3cccc4c(Br)cccc34)nc2c1 [AK-968/12097078] | -2.025
CCC1CCc2c(sc(NC(=O)c3c(-c4c(Cl)cccc4Cl)noc3C)c2C(N)=O)C1 (stereo not drawn) [AK-968/12265292] | -4.47
Cc1onc(-c2ccccc2)c1C(=O)Nc1cccc2c1C(=O)c1ccccc1C2=O [AK-968/13025057] | 30.35
CCCOc1ccc(-c2cc(C(=O)N3CCC(Cc4ccccc4)CC3)c3ccccc3n2)cc1 [AK-968/15360205] | -17.96
O=C1OC(c2ccccc2Cl)=N/C1=C\c1ccc(OCc2ccccc2)cc1OCc1ccccc1 [AK-968/37055166] | -8.735
CCC(Oc1ccc2ccccc2c1Br)C(=O)NNC(=O)c1cc2cc(Br)ccc2oc1=O (stereo not drawn) [AK-968/37077046] | 3.24
Cc1ccc(-c2csc(N3N=C(c4ccc5c(c4)CCCC5)CC3c3ccccc3)n2)cc1 (stereo not drawn) [AL-182/40744490] | -4.165
Nc1nc(Nc2cccc(Cl)c2)sc1C(=O)C12CC3CC(CC(C3)C1)C2 [AM-807/12426163] | 5.915
CN1CCc2nc3sc(C(=O)c4ccc(-c5ccccc5)cc4)c(N)c3c(-c3cccs3)c2C1 [AM-807/14959628] | -12.705
CCOc1cc(/C=C2/SC(=O)N(Cc3c(F)cccc3Cl)C2=O)ccc1O [AM-879/41780072] | 12.385
Cc1cc(C)c2oc(-c3ccc(C)c(NC(=O)C(c4ccccc4)c4ccccc4)c3)nc2c1 [AN-465/13859038] | 40.815
CCn1cc(/C=C2\C(=O)NC(=S)N(c3cccc4ccccc34)C2=O)c2ccccc21 [AN-465/14954307] | 46.45

Structure (SMILES) | Averaged Enzymatic Inhibition @ 2ug/ml (%)
Cc1cc(C)c2oc(-c3cccc(NC(=O)COc4cc(Cl)c(Cl)cc4Cl)c3C)nc2c1 [AN-465/40934866] | 2.22
N#Cc1c(N)nc2sc(C(=O)Nc3ccccc3)c(N)c2c1-c1cccs1 [AN-512/12594125] | 10.48
C/C(=N\Nc1nc(-c2ccc(F)cc2)cs1)c1nonc1C [AN-648/40740338] | 23.375
Cc1ccnc(NC(=O)c2ccc(Cl)c(NC(=O)c3ccc(-c4ccccc4)cc3)c2)c1 [AN-652/43161615] | 17.89
c1ccc(CSc2nnc3c(n2)OC(c2c4ccccc4cc4ccccc24)Nc2ccccc2-3)cc1 (stereo not drawn) [AN-655/13300050] | 23.865
CCc1ccc2[nH]c3nc(N/N=C/c4ccc(-c5cccc(C(F)(F)F)c5)o4)nnc3c2c1 [AN-655/15262058] | 11.82
Cc1ccc(-n2cnc3c(sc4nnc(-c5ccccc5)c(-c5ccccc5)c43)c2=O)cc1 [AN-789/13819006] | 1.595
O=C(COc1ccccc1-c1cnn(-c2ccccc2)c1)N/N=C/c1cc2ccccc2nc1Cl [AN-829/42007480] | 2.755
N#Cc1c(N)nc2sc(C(=O)Nc3ccc(Cl)cc3)c(N)c2c1-c1cccs1 [AN-848/43256373] | -5
O=C1c2ccc(-c3nc4ccccc4s3)cc2C(=O)N1c1cccc(-c2nc3ccccc3s2)c1 [AN-979/41713847] | 5.385
O=C(Nc1cccc(S(=O)(=O)N2CCN(C(=O)c3ccccc3)CC2)c1)C1CCCCC1 [AO-080/43378230] | -9.72
O=C(Cn1cc(/C=C2\SC(=NC3CCCC3)N(C3CCCC3)C2=O)c2ccccc21)N1CCOCC1 [AO-081/15386972] | -1.4
O=C(Nc1ccc(Cl)cc1)C1CC(=O)N(c2ccc(Oc3ccccc3)cc2)C1 (stereo not drawn) [AO-081/15572353] | -3.26
COc1cccc(-c2cc3c(c(N)c2C#N)c(=O)oc2ccccc23)c1 [AO-476/43362608] | 9.055
O=C(c1cccc(S(=O)(=O)NC2CCCCCC2)c1)c1cccc(S(=O)(=O)NC2CCCCCC2)c1 [AP-866/40876225] | 9.84
N#CC1=C(N)Oc2n[nH]c(-c3ccccc3)c2C1c1cccc(OCc2cccc3ccccc23)c1 (stereo not drawn) [AP-964/41446891] | 13.75
c1ccc(-c2cc(-c3c(-c4ccccc4)cn4c3sc3ccccc34)c(-c3ccccc3)nn2)cc1 [AQ-344/43100304] | -14.115
COc1ccc(Cl)cc1C(=O)NCCNc1ccc(-n2nc(C)cc2C)nn1 [AQ-432/43400100] | -6.36
CC(NS(=O)(=O)c1cccc(Cl)c1)C(=O)Nc1cccc(-c2nc3ccccc3s2)c1 (stereo not drawn) [AQ-750/42209760] | 13.425
O=c1oc2ccccc2cc1-c1nnc(NC2CCCCC2)s1 [AQ-968/42007731] | -5.865
Cc1cccn2c(=O)c3cc(C(=O)NC(C)c4ccccc4)c(=N)n(CCc4ccccc4)c3nc12 (stereo not drawn) [AS-871/41399397] | -8.995
OC(CON=C1c2ccccc2-c2ccccc21)CN1CCN(c2ccc(Cl)cc2)CC1 (stereo not drawn) [AS-871/42941985] | -10.47

same assay, conditions: compound at 2ug/ml, read-out: Averaged Enzymatic Inhibition @ 2ug/ml (%)

Structure (SMILES) | inhibition at 2 µg/mL [%]
O=C(c1cc(C(=O)N2CCN(c3ccccc3)CC2)cc(C(=O)N2CCN(c3ccccc3)CC2)c1)N1CCN(c2ccccc2)CC1 [Compound A1] | 80.6
O=C(CN1C(=O)C(=NNC(=O)c2ccc(NC(=O)c3ccccc3)cc2)c2ccccc21)Nc1ccccc1 [Compound A2] | 50.4
Cc1ccc(C)c(N2CCN(C3CC(=O)N(c4ccc(N5C(=O)CC(N6CCN(c7cc(C)ccc7C)CC6)C5=O)cc4)C3=O)CC2)c1 (stereo not drawn) [Compound A3] | 65.8
Cc1ccc(N2C(=O)C(=Cc3ccc(C)s3)C(=O)N(c3ccc(C)cc3C)C2=S)c(C)c1 [Compound M3] | 91.5
COc1cc(/C=C2/C(=N)N3N=C(c4ccccc4Cl)SC3=NC2=O)ccc1O [Compound M4] | 70.5
